From patent publication US20220381790A1, “SELECTION AND BLOCKADE OF FERTILIZATION COMPETENT MALE AND FEMALE GAMETES” (University of Virginia Patent Foundation, priority 2019, published 2022)
“Also recorded” adds a separate entry of the source. Values belong to the molecule of their own block, whether it stands above or below them.

How the values were obtained:
sperm = experiment: Sperm progressive motility; type: cell-based, mouse; conditions: for progressive motility of the sperm: 10 μg/ml Annexin V, 50 μg/ml GST or 50 μg/ml GST-BAI1-TSR
Procedure: To evaluate the role of PtdSer exposed on sperm, cumulus oocyte complexes (n=30-60) were inseminated with 2-4×10^4 sperm capacitated for 60-90 min in TYH+BSA (in most of the experiments) or in TYH+MBCD^67 (in the experiment to test the effect of Annexin V in fertilization, FIG. 1K). During the last 30 min of capacitation, sperm were incubated with 10 μg/ml Annexin V (Ebiosciences), 50 μg/ml GST or 50 μg/ml GST-BAI1-TSR. After co-culture of oocytes and sperm in 100 μl drops of high calcium human tubal fluid (HTF) supplemented with 1 mM reduced glutathione (GSH) medium for 4 hours^67, eggs were washed several times and transferred to KSOM medium (EMD Millipore). The percentage of 2-cell embryos (fertilized eggs) was determined at 24 hours post insemination. Sperm motility upon incubation with control medium, Annexin V, GST or GST-BAI1-TSR was graded as progressive motility, non-progressive motility, and immotility, according to the criteria of the 5th Edition of the World Health Organization (WHO) Laboratory Manual for the Examination and Processing of Human Semen. The non-progressive motility and immotility numbers were grouped together. To test the soluble head group of PtdSer, O-Phospho-L-Serine (Sigma) and its control O-Phospho-D-Serine (Sigma) in IVF assays, ˜20 ZP-free oocytes isolated from wt mice were incubated 1×10^3 capacitated sperm in 20-μl droplets for 1 h in the presence of 1 mM O-Phospho-L-Serine or O-Phospho-D-Serine. After washes and an overnight incubation the percentage of 2-cell embryos was evaluated.

RAC1 in ZP-free oocytes = experiment: Sperm DNA decondensation assay with RAC1 inhibitor; type: cell-based, mouse; conditions: 80 μM, oocytes preincubated 1-2 h, inhibitor present during 1 h insemination
Procedure: To evaluate the role of RAC1, ZP-free oocytes were prepared as described above, loaded with 10 μg/ml DAPI (BioRad) for 20 min at 37° C., 5% CO2, and washed several times in TYH+BSA 3. Twenty oocytes, either untreated or previously incubated with RAC1 inhibitor (80 μM, EHT-1864, Sigma) for 1-2 h were inseminated with 1000 capacitated sperm for 1 h in 20 μl drops of TYH+BSA medium at 37° C., 5% CO2. RAC1 inhibitor was also present the fertilization steps. After 3 washes, oocytes were fixed in 0.25% glutaraldehyde and 0.1% paraformaldehyde for 20 min at room temperature, washed and mounted. The percentage of oocytes with DAPI^+ decondensed sperm nuclei (typically 1-2/oocyte) was evaluated by microscopy.

C2C12 myoblasts = experiment: Sperm:myoblast fusion assay; type: cell-based, mouse; conditions: 4 h co-culture; for sperm:myoblast fusion (Calcein-AM+ myoblasts): Calcein-AM labeled sperm, 50 μg/ml GST-BAI1-TSR on sperm, 80 μM EHT-1864, 5 μg/ml Cytochalasin D, 4% PFA; for DiI+ myoblasts (transfer of the dye DiI from the sperm to the myoblasts): DiI-labeled sperm
Procedure: To stain sperm with the dyes Calcein-AM or DiI, caudal sperm were allowed to swim in TYH+0.75 mM Methyl-beta-cyclodextrin (MBCD)^67 for 15 min, counted and stained with 4 μM Calcein red orange-AM (Invitrogen) for 30 min in PBS at room temperature or with 5 μg/ml DiI (Invitrogen) for 30 min at 37° C. in HBSS, as previously described^60. Cells were washed, counted and resuspended in DMEM medium supplemented with 20% heat inactivated FBS.
Sperm:myoblast fusion experiments. C2C12 murine skeletal muscle myoblasts (ATCC) were maintained at sub-confluent densities in DMEM medium supplemented with 20% heat inactivated FBS at 37° C., 8.5% CO2. Cells were trypsinized, counted and plated in 4-well LabTek II Permanox chamber slides (25,000 cells/well). After 24 h, myoblasts were treated with appropriate buffer alone, or 5 μg/ml Cytochalasin D (Sigma), 80 μM RAC1 inhibitor (EHT-1864), or incubated with Abs (BAI3 [R&D Systems, MAB39651] or CD9 [BD Biosciences]) for 30 min at 37° C., 8.5% CO2 prior to the sperm co-incubation. Alternatively, myoblasts were fixed with 4% PFA for 20 min and washed several times. Calcein-AM+ sperm (250,000 sperm/well) were added and incubated for 4 h at 37° C., 8.5% CO2. The blocking agents were also present during the co-incubation except for Cytochalasin D, which was used only during the preincubation to avoid affecting the sperm. Sperm were pretreated with 50 μg/ml GST or 50 μg/ml GST-BAI1-TSR for 30 min and then added to the myoblasts. C2C12 myoblasts with shRNA-mediated Elmo2 knockdown have been described previously^25. After the 4 h co-incubation, myoblasts were washed, stained with Hoechst and mounted. Cells were analyzed the same day and 6-8 fields/well were photographed using the Axio Imager 2 with Apotome (Zeiss). Image J cell counter plugin software was used to quantitate nuclei number. The fusion index was calculated as the percentage of Calcein AM^+ myoblasts in the experimental group normalized to the control untreated cells.

ZP-free oocytes = experiment: In vitro fertilization assay, competition with soluble head group of PtdSer; type: cell-based, mouse; conditions: 1 mM, ZP-free oocytes with capacitated sperm for 1 h, 2-cell embryos after overnight incubation
Procedure: In vitro fertilization (IVF) assays. IVF was performed as previously described^68. Briefly, 4-5 week old female mice were super-ovulated by intraperitoneal injections of 5 IU of pregnant mare serum gonadotropin (PMSG, Prospec) and 5 IU of human chorionic gonadotropin (hCG, Sigma) 48 hours (h) later. Metaphase II oocytes were recovered 13 h after hCG, and were: 1) directly used as cumulus oocyte complexes (COC), 2) freed from cumulus cells by a brief incubation with 3 mg/ml hyaluronidase (Sigma) in 0.01% poly vinyl alcohol (PVA)/FHM medium (EMD Millipore). These oocytes were labeled as Zona pellucida (ZP)-intact oocytes; or 3) freed from cumulus cells and ZP using Tyrode's solution (Sigma) (ZP-free oocytes). Sperm were collected from the cauda epididymides of adult (>10 week-old) wild-type male mice and capacitated for 90 min in TYH+BSA medium (described above, Sperm staining section). All the incubations were performed in medium drops under paraffin oil (Sigma) at 37° C., 5% CO2 atmosphere. To evaluate the role of PtdSer exposed on sperm, cumulus oocyte complexes (n=30-60) were inseminated with 2-4×10^4 sperm capacitated for 60-90 min in TYH+BSA (in most of the experiments) or in TYH+MBCD^67 (in the experiment to test the effect of Annexin V in fertilization, FIG. 1K). During the last 30 min of capacitation, sperm were incubated with 10 μg/ml Annexin V (Ebiosciences), 50 μg/ml GST or 50 μg/ml GST-BAI1-TSR. After co-culture of oocytes and sperm in 100 μl drops of high calcium human tubal fluid (HTF) supplemented with 1 mM reduced glutathione (GSH) medium for 4 hours^67, eggs were washed several times and transferred to KSOM medium (EMD Millipore). The percentage of 2-cell embryos (fertilized eggs) was determined at 24 hours post insemination. […] After washes and an overnight incubation the percentage of 2-cell embryos was evaluated.

[1] = annexin V for PS; cited from earlier work
PtdSer exposed on sperm = experiment: In vitro fertilization assay, masking PtdSer on sperm; type: cell-based, mouse; conditions: 2-cell embryos at 24 h
Procedure: In vitro fertilization (IVF) assays. IVF was performed as previously described^68. Briefly, 4-5 week old female mice were super-ovulated by intraperitoneal injections of 5 IU of pregnant mare serum gonadotropin (PMSG, Prospec) and 5 IU of human chorionic gonadotropin (hCG, Sigma) 48 hours (h) later. Metaphase II oocytes were recovered 13 h after hCG, and were: 1) directly used as cumulus oocyte complexes (COC), 2) freed from cumulus cells by a brief incubation with 3 mg/ml hyaluronidase (Sigma) in 0.01% poly vinyl alcohol (PVA)/FHM medium (EMD Millipore). These oocytes were labeled as Zona pellucida (ZP)-intact oocytes; or 3) freed from cumulus cells and ZP using Tyrode's solution (Sigma) (ZP-free oocytes). Sperm were collected from the cauda epididymides of adult (>10 week-old) wild-type male mice and capacitated for 90 min in TYH+BSA medium (described above, Sperm staining section). […]
To evaluate the role of PtdSer exposed on sperm, cumulus oocyte complexes (n=30-60) were inseminated with 2-4×10^4 sperm capacitated for 60-90 min in TYH+BSA (in most of the experiments) or in TYH+MBCD^67 (in the experiment to test the effect of Annexin V in fertilization, FIG. 1K). […] The percentage of 2-cell embryos (fertilized eggs) was determined at 24 hours post insemination. […] After washes and an overnight incubation the percentage of 2-cell embryos was evaluated.

[2] = tested on: ZP-free wild-type oocytes; experiment: Binding of 2 μm carboxylate modified beads to oocytes; type: cell-based, mouse; conditions: beads pretreated with 50 μg/ml GST-BAI1-TSR for 30 min; oocytes with >5 bound beads scored
Procedure: The presence of functional PtdSer receptors on mouse ZP-free wild-type oocytes was evaluated by incubation with 2 μm carboxylate modified red (580/605) beads (1:400, Invitrogen, FluoSpheres) for 2 h in TYH+BSA at 37° C., 5% CO2. Beads were pre-treated with medium only, 50 μg/ml GST or 50 μg/ml GST-BAI1-TSR for 30 min. Oocytes were washed 6 times in TYH+BSA, stained with CD9 antibody for 30 min at 37° C., 5% CO2 in TYH+BSA, fixed in 4% PFA+1% BSA and stained with Hoechst. The percentage of oocytes with bound beads was determined by microscopy. We scored oocytes with >5 bound beads, since accurately counting individual beads, particularly in oocytes of the control groups that bound multiple beads was unfeasible.

Molecule: O=c1cc(CN2CCOCC2)occ1OCCCCCSc1ccnc2cc(C(F)(F)F)ccc12 [EHT-1864, reference compound]
sperm motility (sperm; sperm incubated with EHT-1864 alone under the assay conditions): no reduction in the motility | number of oocytes with decondensed sperm DNA (RAC1 in ZP-free oocytes): significant reduction | sperm:myoblast fusion (Calcein-AM+ myoblasts) (C2C12 myoblasts): potently blocked | DiI+ myoblasts (transfer of the dye DiI from the sperm to the myoblasts) (C2C12 myoblasts): blocked

Molecule: N[C@H](COP(=O)(O)O)C(=O)O [Phospho-D-Serine, O-Phospho-D-Serine]
effect on fertilization (2-cell embryos) (ZP-free oocytes): did not inhibit fertilization

Molecule: N[C@@H](COP(=O)(O)O)C(=O)O [Phospho-L-Serine, O-Phospho-L-Serine]
effect on fertilization (2-cell embryos) (ZP-free oocytes): significant reduction in fertilization | inhibition at 1000 µM (ZP-free oocytes; Mus musculus, Oocyte, read-out: partial inhibition of fertilization): 30 to 40%

Molecule: C=C1[C@@H](C)[C@H]2[C@H](Cc3ccccc3)NC(=O)[C@]23[C@H](OC(C)=O)/C=C/[C@@](C)(O)C(=O)[C@@H](C)C/C=C/[C@H]3[C@@H]1O [cytochalasin D, reference compound]
sperm:myoblast fusion (Calcein-AM+ myoblasts) (C2C12 myoblasts): abrogated

Molecule: Annexin V: PtdSer-binding protein reagent (Ebiosciences) used to mask PtdSer on sperm; highest affinity of the three blocking agents
Kd [1]: 6.6 nM | progressive motility of the sperm (sperm): not affected; also recorded: No significant differences | reduction in fertilization (PtdSer exposed on sperm; 10 μg/ml Annexin V on capacitated caudal sperm, in three out of four independent experiments): > 85%

binding of carboxylate modified beads to oocytes [2]: significantly decreased
Molecule: BAI1-TSR: soluble extracellular fragment of the PtdSer recognition receptor BAI1 (residues 202-585) fused to glutathione-S-transferase; SEQ ID NOs: 1 and 2
progressive motility of the sperm (sperm): not affected | progressive motility of the sperm (sperm; listed as GST-BAI1-TSR): No significant differences | effect on fertilization (2-cell embryos) (PtdSer exposed on sperm; sperm incubated with 50 μg/ml GST-BAI1-TSR): significantly reduced fertilization | sperm:myoblast fusion (Calcein-AM+ myoblasts) (C2C12 myoblasts): significantly decreased the fusion

Molecule: GST: glutathione-S-transferase control protein, SEQ ID NO: 1 [reference compound]
progressive motility of the sperm (sperm): No significant differences

Molecule: paraformaldehyde
sperm:myoblast fusion (Calcein-AM+ myoblasts) (C2C12 myoblasts): abrogated | DiI+ myoblasts (transfer of the dye DiI from the sperm to the myoblasts) (C2C12 myoblasts): blocked
